Data published in patent publication US4562292A, “Trifluoromethylketone sulfides and reversible enzyme inhibition therewith” (priority 1983, dated 1985).
Read-outs that look alike come from different tables or passages of the source.

Tests used:
JH esterase = JH esterase inhibition in T. ni hemolymph; assay type: biochemical, Trichoplusia ni; conditions: for IC50: diluted T. ni larval plasma, 10 min preincubation at 30° C., 5×10^-6 M JH III, read-out: I50 (M) JHE
Protocol: JH esterase activity was monitored in the hemolymph collected from last stadium day two larvae of the cabbage looper, Trichoplusia ni, Lepidoptera, Noctuidae. The plasma was diluted (v/v) in sodium phosphate buffer (pH 7.4, 0.08M with 0.01% [w/v] phenyulthiourea) and frozen at -60° C. until used. The inventive compounds were added in 1μ liter of ethanol to 100μ liters of the diluted plasma and preincubated for 10 min at 30° C. before adding substrate (ClO^3 H JH III New England Nuclear and unlabeled E, E JH III, Calbiochem) in 1μ liter of ethanol to give a final concentration of 5×10^-6 M JH III containing about 30,000 dpm/assay (Hammock and Sparks, Anal. Biochem. 82, 573 (1977).
(§1) In each case, at least three replicates of each inhibitor concentration were used. A minimum of two inhibitor concentrations showing greater and less than 50% inhibition were used to determine the I50 values from semilog plots except in the case of weaker inhibitors. Only those points on the apparently linear portion of the curve were used to calculate the I50 's.

α-NAE = test: α-Naphtyl acetate (α-NA) hydrolysis in T. ni prepupal hemolymph; assay type: biochemical, Trichoplusia ni; conditions: hemolymph of T. ni prepupae, substrate 2.3×10^-4 M; read-out: I50 (M) α-NAE
Protocol: α-Naphtyl acetate (α-NA) hydrolysis was monitored similarly in the hemolymph of prepupae of T. ni (fifth stadium, day 4) with a final substrate of 2.3×10^-4 M. Plasma dilutions and incubation times were chosen to give a hydrolysis rate which was linear with time.
as §1

[1] = target: T1, bovine pancreatic type III trypsin (Bos taurus, UniProt P00760); test: trypsin activity; assay type: biochemical
T1 construct: purchased Sigma type III
T1 sequence (P00760 24-246): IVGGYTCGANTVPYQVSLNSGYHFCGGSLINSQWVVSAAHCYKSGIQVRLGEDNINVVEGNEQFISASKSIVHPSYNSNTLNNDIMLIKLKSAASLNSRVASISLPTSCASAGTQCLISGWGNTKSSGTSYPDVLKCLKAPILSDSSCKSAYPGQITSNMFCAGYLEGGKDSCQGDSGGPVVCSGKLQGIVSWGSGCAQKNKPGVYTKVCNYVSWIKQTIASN
Protocol: For trypsin, 1.5 ml of p-toluenesulfonyl-L-arginine methyl ester (Sigma) in Tris HCl buffer (pH 8.1, 0.04M with 0.1M CaCl2) was added to 1.5 ml of the same buffer containing bovine pancreatic type III trypsin (Sigma, 0.24 μg) to give a final substrate concentration of 1×10^-4 M. The assay was performed at 25° C.
(§2) For AChE, trypsin and α-ChT, the inhibitor was added to ethanol 10 min prior to the substrate and preincubated at the same temperature used for the actual assay. In no case was greater than 1% v/v ethanol added, and ethanol controls were always run. For the spectrophotometric enzyme assays, initial studies were run on a Varian-Cary 219 UV/visible spectrophotometer, while subsequent assays were run on a Gilford manual EIA reading using disposable cuvettes.
as §1

[2] = target: T2, Type VI-S electric eel AChE (Electrophorus electricus, UniProt O42275); test: acetylcholinesterase (AChE) activity; assay type: biochemical
T2 construct: purchased Sigma Type VI-S
T2 sequence (O42275 24-633): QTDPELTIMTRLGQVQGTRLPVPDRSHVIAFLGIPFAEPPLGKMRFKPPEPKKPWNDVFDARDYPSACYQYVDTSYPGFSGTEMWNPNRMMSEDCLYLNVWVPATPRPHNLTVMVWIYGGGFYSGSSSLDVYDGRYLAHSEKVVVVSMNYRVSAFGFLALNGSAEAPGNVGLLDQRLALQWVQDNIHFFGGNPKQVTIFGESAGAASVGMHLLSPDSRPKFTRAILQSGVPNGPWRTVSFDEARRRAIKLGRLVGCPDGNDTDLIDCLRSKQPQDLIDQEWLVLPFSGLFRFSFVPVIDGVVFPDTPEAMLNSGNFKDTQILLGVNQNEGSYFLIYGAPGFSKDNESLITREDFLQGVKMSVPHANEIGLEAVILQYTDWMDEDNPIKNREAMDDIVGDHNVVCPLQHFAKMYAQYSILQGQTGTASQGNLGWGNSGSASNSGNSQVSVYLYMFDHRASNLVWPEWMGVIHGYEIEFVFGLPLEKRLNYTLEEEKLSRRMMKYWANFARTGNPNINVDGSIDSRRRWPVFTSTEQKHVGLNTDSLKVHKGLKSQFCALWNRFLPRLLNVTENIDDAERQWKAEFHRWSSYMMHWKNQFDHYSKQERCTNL
Protocol: For acetylcholinesterase (AChE) activity, 20μ liters of acetylthiocholine iodide (Sigma) in sodium phosphate buffer (0.05M, ph 7.2) was added to Type VI-S electric eel AChE (Sigma, 10 ng with 2-400 units/mg protein) in 3 ml the same buffer to give a final substrate concentration of 5×10^-4 M. The assay was run at 37° C.
as §2, §1

T. ni larvae [3] = test: mortality of T. ni larvae after repeated topical applications; assay type: in vivo, Trichoplusia ni
Protocol: (§3) T. ni larvae are treated with 1 or 2μ liters of ethanol, with TFPOS, wit o-ethyl-S-phenyl phosphoramidothiolate (EPPAT), or with 1,1,1-trifluorotetradecan-2-one (TFT) in 1×10^-1 M ethanol solutions on the dorsum of the thorax three times per day (4, 12 and 17 hr after lights on) during the first two days of the last larval stadium. The insects were held under standard rearing conditions (27° C., 14 hr light, 10 hr dark). The time of pupation was checked daily at 4 hr after lights on and the pupae were checked for successful emergence two weeks later.
(§4) Larvae were treated on the dorsum of the thorax with 1 or 2μ liters of ethanol (control) and with 1 or 2μ liters, respectively, of 10^-1 M TFT, TFPOS, DTFT or EPPAT in ethanol, 3 times per day at 4, 12 and 17 h ALO (after lights on) on L5Dl and D2. Time of pupation was checked daily at 4 h ALO, and emergence was checked 2 weeks after treatment. L5Dl larvae 4 h ALO were also treated, but only once with 1μ liter ethanol or with 1μ liter of 10-1 M TFT, TFPOS, or EPPAT in ethanol, and then were bled at 1, 8, 12, 23, 28, or 32 h after treatment. Hemolymph was collected from five larvae, mixed and frozen at -60° C. until assayed for JHE and α-NAE activity. […] Death usually occured during the larval-pupal transformation, with the control mortality at 2μ liters of ethanol being 1%, TFT at 0.2M being 6%, an TFPOS being 4%.

T. ni JHE [4] = test: removal of inhibitor by dialysis (reversibility of inhibition); assay type: biochemical, Trichoplusia ni
T. ni JHE [5] = test: in vivo inhibition of T. ni JHE after topical application; set-up: species or system Trichoplusia ni; conditions: for maximum percent inhibition obtainable after treatment / selectivity for JHE in vivo: compared with EPPAT
Protocol: as §4
In another study, the in vivo inhibition of T. ni JHE following a single dose (0.1μ moles/larve) of EPPAT and TFPOS respectively was monitored. Maximum inhibition of T. ni JHE was obtained one hour after topical application for each.

T. ni larvae [6] = test: topical treatment of T. ni larvae, time of pupation; assay type: in vivo, Trichoplusia ni; conditions: for delay of pupation versus ethanol controls: 0.1 and 0.2μ mole per application, 3 times per day, L5D1 and D2, topical; for delay of pupation: topical
Protocol: as §3, §4

clofibrate esterase = test: hydrolysis of clofibrate by microsomal protein; assay type: biochemical, human
Description: The drug clofibrate (α-[4-chlorophenoxy)-α-methylpropionate; Atromid-S) is one of a class of compounds given to heart patients as a hypolipidemic agent.

[7] = p-toluenesulfonyl-L-arginine methyl ester 1×10^-4 M, 25° C., read-out: I50 (M) Trypsin (*greater than)
[8] = acetylthiocholine iodide 5×10^-4 M, 37° C., * = greater than, read-out: I50 (M) AChE

Structure (SMILES) | IC50 (JH esterase) | IC50 (α-NAE) | IC50 [1, 7] | IC50 [2, 8] | also measured
CCCCCCCCCCSCC(=O)C(F)(F)F [Compound 3] | 2e-08 M | 1e-05 M | 8.2e-05 M | 3.2e-06 M | –
CCCCCCCCCCCSCC(=O)C(F)(F)F [Compound 4] | 4.3e-08 M | 4.5e-05 M | > 0.0001 M | 2.6e-06 M | –
Cc1ccccc1SCC(=O)C(F)(F)F [Compound 9] | 4.3e-06 M | 6e-07 M | 8.5e-05 M | 3.7e-07 M | –
COC(C)(C)CCC/C(C)=C/CCSCC(=O)C(F)(F)F [Compound 32, (E)-8,12-Dimethyl-12-methoxy-4-Thia-1,1,1-trifluorotridec-7-en-2-one] | 3.1e-09 M | 1.9e-06 M | – | – | IC50 [1]: > 0.0001 M; IC50 [2]: > 0.0001 M
O=C(CSC1CCCCC1)C(F)(F)F [Compound 6] | 5.2e-06 M | 7.1e-07 M | > 0.0001 M | 1.8e-06 M | –
CCCCCCCCSCC(=O)C(F)(F)F [Compound 1, 1,1,1-Trifluoro-3-thioocytylpropan-2-one] | – | 1.2e-06 M | > 1e-05 M | 2.3e-06 M | inhibition I50 value, juvenile hormone esterases (JH esterase; in words): nanomolar range; times more active in vitro for juvenile hormone esterase than TFT (JH esterase; versus TFT): over 40 times; mortality at 0.2 µmol/application (T. ni larvae [3]; Trichoplusia, topical, repeated applications of 2μ liters (0.2 moles/application), Example VIII): 4%; mortality (T. ni larvae [3]; repeated 1μ liter applications of 1×10^-1 M solution): No mortality; enzyme activity after dialysis (T. ni JHE [4]; 48 hours after starting the dialysis): restored gradually to the same activity as in the uninhibited enzyme; t0.5 of reactivation (T. ni JHE [4]; dialysis): more than 20 hours; type of inhibition of T. ni JHE (T. ni JHE [4]; dialysis): reversible inhibitors; maximum percent inhibition obtainable after treatment (T. ni JHE [5]): as effective; selectivity for JHE in vivo (T. ni JHE [5]): more selective for JHE in vivo than EPPAT; time of maximum inhibition of T. ni JHE after topical application (T. ni JHE [5]; single dose 0.1μ moles/larve): one; delay of pupation versus ethanol controls (T. ni larvae [6]; listed as TFPOS): pupation was delayed with respect to the controls in a dose-dependent manner; delay of pupation (T. ni larvae [6]; 0.2μ moles/application): more dramatic; in vivo activity (T. ni larvae [6]; in vivo): pronounced in vivo activity; delay of pupation (T. ni larvae [6]; repeated doses of 0.1μ moles, first two days of last larval stadium): effective in delaying the pupation
CC(C)=CCC/C(C)=C/CCSCC(=O)C(F)(F)F [Compound 31, (E)-8,12-dimethyl-4-thia-1,1,1-trifluorotrideca-7,11-dien-2-one] | 3.2e-09 M | 7.2e-07 M | > 0.0001 M | 6.2e-05 M | maximum percent inhibition obtainable after treatment (T. ni JHE [5]): as effective; selectivity for JHE in vivo (T. ni JHE [5]): more selective for JHE in vivo than EPPAT; delay of pupation versus ethanol controls (T. ni larvae [6]; listed as DTFT): pupation was delayed with respect to the controls in a dose-dependent manner
O=C(CSc1ccc(Cl)cc1)C(F)(F)F [Compound 19] | – | – | – | – | Wilkinson kinetics (clofibrate esterase; clofibrate hydrolysis): curves expected for a slowly reversible inhibitor; effect on hydrolysis of clofibrate (clofibrate esterase; low concentrations, Vm 104 nmol/min mg microsomal protein, Km 5.5 mM, ethanol release): significant delay in reacting maximal velocity
Cc1ccc(SCC(=O)C(F)(F)F)cc1 [Compound 11] | 1.1e-07 M | 1.6e-06 M | > 0.0001 M | 6.1e-07 M | –
CC(C)c1ccccc1SCC(=O)C(F)(F)F [Compound 12] | 3.4e-07 M | 2.7e-07 M | 4.7e-05 M | 4.9e-08 M | –
O=C(CSc1ccc(Br)cc1)C(F)(F)F [Compound 20] | 4.1e-07 M | 4.9e-06 M | > 1e-05 M | 2.4e-06 M | –
CCCCCCCCCSCC(=O)C(F)(F)F [Compound 2] | 3.7e-09 M | 6.3e-06 M | > 0.0001 M | 9.3e-07 M | –
CCCCCCCCCCCCSCC(=O)C(F)(F)F [Compound 5] | 1.5e-08 M | 9.7e-05 M | > 0.0001 M | 2.2e-06 M | –
